Reference: ChEMBL document CHEMBL5335844, “Design, synthesis and preliminary biological evaluation of rivastigmine-INDY hybrids as multitarget ligands against Alzheimer's disease by targeting butyrylcholinesterase and DYRK1A/CLK1 kinases” (RSC Med Chem, 2024)

Assays:
[1] = target: T1, Dual specificity protein kinase CLK1 (Homo sapiens, UniProt P49759); test: Inhibition of human CLK1 using ERMRPRKRQGSVRRRV as substrate incubated for 40 mins in presence of Mg/[gamma-33P]-ATP by scintillation counting method
Target sequence in this assay (P49759 whole entry): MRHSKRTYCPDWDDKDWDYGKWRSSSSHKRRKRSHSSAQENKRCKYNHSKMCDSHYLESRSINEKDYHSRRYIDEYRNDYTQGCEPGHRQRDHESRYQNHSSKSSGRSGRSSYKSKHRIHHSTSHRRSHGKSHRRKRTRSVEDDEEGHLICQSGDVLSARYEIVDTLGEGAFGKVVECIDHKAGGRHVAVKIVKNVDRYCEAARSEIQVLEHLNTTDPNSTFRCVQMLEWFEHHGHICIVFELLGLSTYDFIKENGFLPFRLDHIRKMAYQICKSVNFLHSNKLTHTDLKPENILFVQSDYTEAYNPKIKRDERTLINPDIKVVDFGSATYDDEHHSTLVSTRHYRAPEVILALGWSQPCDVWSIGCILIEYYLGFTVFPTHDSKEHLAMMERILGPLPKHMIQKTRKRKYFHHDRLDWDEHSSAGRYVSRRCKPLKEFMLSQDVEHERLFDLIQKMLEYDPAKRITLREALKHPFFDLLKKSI

[2] = target: T2, Dual specificity tyrosine-phosphorylation-regulated kinase 1A (Homo sapiens, UniProt Q13627); test: Inhibition of human DYRK1A using RRRFRPASPLRGPPK as substrate incubated for 40 mins in presence of Mg/[gamma-33P]-ATP by scintillation counting method
[3] = target: T2, Dual specificity tyrosine-phosphorylation-regulated kinase 1A; test: Inhibition of human DYRK1A at 10 uM using RRRFRPASPLRGPPK as substrate incubated for 40 mins in presence of Mg/[gamma-33P]-ATP by scintillation counting method relative to control
Acetylcholinesterase [4] = target: T3, Acetylcholinesterase (Homo sapiens, UniProt P22303); test: Inhibition of human erythrocyte AChE at 10 uM using acetylthiocholine iodide as substrate preincubated for 5 mins followed by substrate addition and measured every min for 10 mins by Ellman's method relative to control; conditions: time 15.0 min
T3 sequence (P22303 whole entry): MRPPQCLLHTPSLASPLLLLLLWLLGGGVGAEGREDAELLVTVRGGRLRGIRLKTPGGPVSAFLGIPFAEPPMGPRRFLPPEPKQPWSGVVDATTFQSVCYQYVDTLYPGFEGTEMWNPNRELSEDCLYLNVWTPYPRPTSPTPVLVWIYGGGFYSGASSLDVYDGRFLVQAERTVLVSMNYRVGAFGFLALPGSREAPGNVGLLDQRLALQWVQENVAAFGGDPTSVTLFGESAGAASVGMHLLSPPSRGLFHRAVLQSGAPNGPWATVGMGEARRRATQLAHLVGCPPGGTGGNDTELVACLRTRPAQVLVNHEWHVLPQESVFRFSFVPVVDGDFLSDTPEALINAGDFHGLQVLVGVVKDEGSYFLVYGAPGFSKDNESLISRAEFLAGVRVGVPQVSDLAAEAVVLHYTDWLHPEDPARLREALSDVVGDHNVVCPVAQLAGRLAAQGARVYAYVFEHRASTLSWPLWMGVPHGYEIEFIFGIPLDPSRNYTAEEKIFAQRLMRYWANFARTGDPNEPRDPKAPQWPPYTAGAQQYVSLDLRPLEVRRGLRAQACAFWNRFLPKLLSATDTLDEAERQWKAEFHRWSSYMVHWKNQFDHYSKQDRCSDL

Cholinesterase = Cholinesterase (Equus caballus, UniProt P81908); test: Inhibition of equine serum BuChE using butyrylthiocholine iodide as substrate preincubated for 5 mins followed by substrate addition and measured every min for 10 mins by Ellman's method; format: cell-free
Cholinesterase, sequence (P81908 whole entry): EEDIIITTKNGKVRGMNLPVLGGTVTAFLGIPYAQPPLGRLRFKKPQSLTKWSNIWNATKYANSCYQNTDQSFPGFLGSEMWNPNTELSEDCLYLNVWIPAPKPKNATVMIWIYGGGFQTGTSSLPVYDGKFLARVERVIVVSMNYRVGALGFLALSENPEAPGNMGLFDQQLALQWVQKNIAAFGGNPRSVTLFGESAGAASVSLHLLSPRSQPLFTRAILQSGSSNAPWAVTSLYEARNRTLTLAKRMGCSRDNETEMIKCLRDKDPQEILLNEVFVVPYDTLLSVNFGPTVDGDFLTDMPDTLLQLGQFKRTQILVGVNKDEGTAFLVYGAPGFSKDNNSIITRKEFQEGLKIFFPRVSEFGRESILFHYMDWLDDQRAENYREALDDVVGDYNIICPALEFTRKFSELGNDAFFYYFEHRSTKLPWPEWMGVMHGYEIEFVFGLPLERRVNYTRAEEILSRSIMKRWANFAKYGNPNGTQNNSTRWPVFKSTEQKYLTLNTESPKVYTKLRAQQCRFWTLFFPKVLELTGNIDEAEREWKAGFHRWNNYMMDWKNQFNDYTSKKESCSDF

Acetylcholinesterase [5] = target: T3, Acetylcholinesterase; test: Inhibition of human erythrocyte AChE using acetylthiocholine iodide as substrate preincubated for 5 mins followed by substrate addition and measured every min for 10 mins by Ellman's method
[6] = Chromatographic hydrophobicity index, logD of the compound at pH 7.4 by reversed phase HPLC analysis; format: physicochemical; conditions: buffer
[7] = target: Cholinesterase (Equus caballus) (UniProt P81908); test: Inhibition of equine serum BuChE at 10 uM using butyrylthiocholine iodide as substrate preincubated for 5 mins followed by substrate addition and measured every min for 10 mins by Ellman's method relative to control; format: cell-free; conditions: time 15.0 min
Cholinesterase (Equus caballus), sequence (P81908 whole entry): as above

[8] = target: T1, Dual specificity protein kinase CLK1; test: Inhibition of human CLK1 at 10 uM using ERMRPRKRQGSVRRRV as substrate incubated for 40 mins in presence of Mg/[gamma-33P]-ATP by scintillation counting method relative to control
Target sequence in this assay (P49759 whole entry, looked up): as the sequence (P49759 whole entry) above

[9] = Solubility of the compound in PBS at pH 7.4 by HPLC analysis; format: physicochemical; conditions: buffer

With `COc1cccc(CN2/C(=C/C(C)=O)Sc3ccc(O)cc32)c1` as the molecule, how does the IC50 [1] read?
The IC50 was 76 nM.

What about the IC50 [2] of the same molecule?
Its IC50 is 883 nM.

Which results are given for `CC(=O)/C=C1\Sc2ccc(O)cc2N1Cc1ccc(Cl)cc1`?
IC50 [1]: 40 nM; inhibition [3]: 75%

Which results are given for `CCN(C)C(=O)Oc1ccc2c(c1)N(CCc1ccccc1)/C(=C/C(C)=O)S2`?
inhibition (Acetylcholinesterase [4]): < 10%; IC50 (Cholinesterase): 439 nM

For `CCCCCCCNC(=O)Oc1ccc2c(c1)N(CC)/C(=C/C(C)=O)S2`, which IC50 (Cholinesterase) is on record?
Its IC50 is 1640 nM.

Which IC50 [1] does the source give for `CC(=O)/C=C1\Sc2ccc(O)cc2N1CCc1ccccc1` here?
Its IC50 is 17 nM.

What about the IC50 [2] of the same molecule?
Its IC50 is 106 nM.

Which results are given for `CCN1/C(=C/C(C)=O)Sc2ccc(OC(=O)NCCc3ccccc3)cc21`?
IC50 (Acetylcholinesterase [5]): 20 µM; IC50 (Cholinesterase): 6000 nM

What does the source list for `CCCCCCNC(=O)Oc1ccc2c(c1)N(Cc1ccccc1)/C(=C/C(C)=O)S2`?
inhibition (Acetylcholinesterase [4]): < 10%; IC50 (Cholinesterase): 470 nM

Which chromatographic logD [6] does the source give for `CCCCCCCNC(=O)Oc1ccc2c(c1)N(CCc1ccccc1)/C(=C/C(C)=O)S2` here?
Its chromatographic logD is 4.36.

What about the inhibition (Acetylcholinesterase [4]) of the same molecule?
The inhibition was less than 10%.

And the IC50 (Cholinesterase)?
The IC50 was 26.7 nM.

For `CCCCCCCNC(=O)Oc1ccc2c(c1)N(Cc1ccc(Cl)cc1)/C(=C/C(C)=O)S2`, which IC50 (Cholinesterase) is on record?
Its IC50 is 821 nM.

Which IC50 (Cholinesterase) does the source give for `CCCCCCCNC(=O)Oc1ccc2c(c1)N(Cc1cccc(Cl)c1)/C(=C/C(C)=O)S2` here?
The IC50 was 703 nM.

Which inhibition [7] does the source give for `CCCCNC(=O)Oc1ccc2c(c1)N(Cc1ccccc1)/C(=C/C(C)=O)S2` here?
The inhibition was 22%.

And the IC50 (Cholinesterase)?
The IC50 was greater than 10000 nM.

For `CC(=O)/C=C1\Sc2ccc(O)cc2N1Cc1cccc(C)c1`, which IC50 [1] is on record?
Its IC50 is 39 nM.

What about the IC50 [2] of the same molecule?
Its IC50 is 429 nM.

What does the source list for `CCCCCCNC(=O)Oc1ccc2c(c1)N(CC)/C(=C/C(C)=O)S2`?
IC50 (Acetylcholinesterase [5]): 14 µM; IC50 (Cholinesterase): 2000 nM

Which inhibition (Acetylcholinesterase [4]) does the source give for `CCCCCCCNC(=O)Oc1ccc2c(c1)N(Cc1ccccc1)/C(=C/C(C)=O)S2` here?
The inhibition was less than 10%.

And the IC50 (Cholinesterase)?
Its IC50 is 154 nM.

Which results are given for `CC(=O)/C=C1\Sc2ccc(O)cc2N1Cc1ccc2ccccc2c1`?
inhibition [8]: 72%; inhibition [3]: 24%

With `CCN(C)C(=O)Oc1ccc2c(c1)N(Cc1ccccc1)/C(=C/C(C)=O)S2` as the molecule, how does the chromatographic logD [6] read?
The chromatographic logD was 3.

And the inhibition (Acetylcholinesterase [4])?
The inhibition was less than 10%.

And the IC50 (Cholinesterase)?
The IC50 was 68 nM.

And the solubility [9]?
Its solubility is “Soluble”.

With `CCN1/C(=C/C(C)=O)Sc2ccc(OC(=O)NC3CCCCC3)cc21` as the molecule, how does the IC50 (Acetylcholinesterase [5]) read?
The IC50 was 11 µM.

What about the IC50 (Cholinesterase) of the same molecule?
Its IC50 is 13000 nM.

Which results are given for `CCN1/C(=C/C(C)=O)Sc2ccc(OC(=O)NCc3cccnc3)cc21`?
IC50 (Acetylcholinesterase [5]): 34 µM; IC50 (Cholinesterase): 12000 nM

Which inhibition [7] does the source give for `CCN1/C(=C/C(C)=O)Sc2ccc(OC(=O)N(C)C)cc21` here?
The inhibition was 25%.

And the IC50 (Cholinesterase)?
Its IC50 is greater than 10000 nM.

Which IC50 (Cholinesterase) does the source give for `CCCCCCCNC(=O)Oc1ccc2c(c1)N(Cc1cccc(C)c1)/C(=C/C(C)=O)S2` here?
Its IC50 is 761 nM.

Which IC50 [1] does the source give for `CC(=O)/C=C1\Sc2ccc(O)cc2N1Cc1cccc(Cl)c1` here?
Its IC50 is 33 nM.

What about the IC50 [2] of the same molecule?
The IC50 was 885 nM.

Which results are given for `CC(=O)/C=C1\Sc2ccc(O)cc2N1Cc1ccccc1`?
IC50 [1]: 54 nM; IC50 [2]: 529 nM

With `CCCCCCCNC(=O)Oc1ccc2c(c1)N(Cc1ccc3ccccc3c1)/C(=C/C(C)=O)S2` as the molecule, how does the IC50 (Cholinesterase) read?
Its IC50 is greater than 10000 nM.

For `CCCCCCCNC(=O)Oc1ccc2c(c1)N(Cc1cccc(OC)c1)/C(=C/C(C)=O)S2`, which IC50 (Cholinesterase) is on record?
The IC50 was 2190 nM.
